{"source": "paper PMC4703387", "about": "“Identification of the Calmodulin-Binding Domains of Fas Death Receptor” (PLoS ONE, 2016)", "type_in_all_cases": "binding", "key": {"Ca^2+/CaM [1]": {"target": "T1, Ca^2+/CaM (Homo sapiens, UniProt P0DP23)", "T1 construct": "made in house", "assay": "Gel filtration assay of Ca^2+/CaM-peptide complexes", "conditions": "HiLoad Superdex 75 (10/300 GL), 50 mM Tris (pH 7.0), 100 mM NaCl, 5 mM CaCl2", "description": "The mobility of Ca^2+/CaM complexes with Fas-Pep1 and Fas-Pep2 was analyzed by a gel filtration assay. […] Protein fractions were analyzed by SDS-PAGE. A low molecular weight calibration kit (GE Healthcare) was used to determine the approximate molecular weight of complexes.\nFas-Pep2 has been expressed and purified as a fusion protein with SUMO (see Materials and Methods). Because of some technical difficulties during purification of a recombinant peptide, a synthetic Fas-Pep1 was used in this study. The solution properties of Fas-Pep1 and Fas-Pep2 and their complexes with Ca^2+/CaM were initially analyzed with size exclusion chromatography assay. Samples were run on a size exclusion column (Superdex 75) under identical buffer conditions. Sample concentrations were at ~50–100 μM. […] Ca^2+/CaM complexes with Fas-Pep1 and Fas-Pep2 prepared at 1:1 stoichiometry eluted at 11.3 and 11.2 mL, respectively (Fig 3A). […] The formation of complexes was confirmed by SDS-PAGE (Fig 3B). […] As we and others have shown previously, Ca^2+/CaM elutes at a smaller than expected volume due to its elongated dumbbell shape.[32, 42, 43]"}, "Ca^2+/CaM-N": {"target": "T2, Ca^2+/CaM-N (Homo sapiens, UniProt P0DP23)", "T2 construct": "^15N-labled samples of the isolated Ca^2+/CaM-N and Ca^2+/CaM-C domains; made in house", "assay": "NMR titration (2D 1H-15N HSQC) of isolated N-terminal lobe", "conditions": "1H-15N HSQC titration", "description": "NMR data were collected at 35°C on a Bruker Avance II (700 MHz ^1H) spectrometer equipped with a cryogenic triple-resonance probe, processed with NMRPIPE [35] and analyzed with NMRVIEW [36] or CCPN Analysis. […] For signal assignments of the complexes, ^13C-, ^15N-, or ^13C-/^15N-labeled Ca^2+/CaM at ~400–500 μM was mixed with unlabeled Fas-Pep1 (in 100% DMSO-d6) or Fas-Pep2 at 1.5:1 peptide:Ca^2+/CaM. […] The backbone atom resonances of Ca^2+/CaM complexes with Fas-Pep1 and Fas-Pep2 were assigned using HNCA, HN(CO)CA, HNCACB, HNCO, HN(CO)CACB and ^15N-edited NOESY-HSQC and TOCSY-HSQC experiments. These experiments have been also collected on ^15N-, or ^13C-/^15N-labeled Fas-Pep2 in complex with unlabeled Ca^2+/CaM to confirm the α-helical character of Fas-Pep2 when bound to Ca^2+/CaM. […] Combined ^1H-^15N chemical shift changes were calculated as ΔδHN = [(ΔδH)^2+(ΔδN/5)^2]^1/2, where ΔδH and ΔδN are the ^1H and ^15N chemical shift changes, respectively. Kd values were calculated by non-linear least-square fitting algorithm in Origin software (OriginLab, Northampton, MA) using the equation: ΔδHN=ΔδHN^max((Kd+L0+P0)−((Kd+L0+P0)^2−4*P0*L0)^0.5)/(2*P0) where ΔδHN^max is the chemical shift change between complex and free protein, L0 total concentration of ligand, and P0 total concentration of protein. […]"}, "Ca^2+/CaM [2]": {"target": "T1, Ca^2+/CaM", "assay": "2D 1H-13C HMQC of 13C-labeled Ca^2+/CaM methionine methyl groups", "source_text": "In the second approach, we assessed the role of hydrophobic surfaces located on the N- and C-terminal lobes of Ca^2+/CaM. These hydrophobic surfaces, which contribute to the flexibility and function of Ca^2+/CaM, are only formed when Ca^2+ is bound.[24] Ca^2+ binding induces a helical rearrangement, leading to exposure of eight methionine (Met) residues.[46, 47] Met residues are essential for the unique promiscuous binding behavior of Ca^2+/CaM to target proteins.[47] The methyl groups of Met residues are useful “NMR reporters” and widely used to probe for target binding.[34, 42, 47–49] Five Met residues (36, 51, 71, 72 and 76) are located in the N-terminal lobe and four (109, 124, 144, and 145) are located within the hydrophobic patch in the C-terminal lobe (Fig 8A). To assess whether the N- and C-terminal hydrophobic surfaces contribute to the binding of FasDD peptides, we collected 2D ^1H-^13C HMQC data on a uniformly ^13C-labeled Ca^2+/CaM sample as titrated with Fas-Pep1 or Fas-Pep2. Addition of a substoichiometric amount of Fas-Pep1 (0.5:1 peptide:Ca^2+/CaM) led to a decrease in the intensity of ^1H-^13C signals of M51, M71, M72, M109, M124 and M145 (Fig 8B, upper panel). Minimal or no chemical shift changes have been observed for signals corresponding to M76 and M144. Further addition of Fas-Pep1 led to appearance of new signals (Fig 8B). […]"}}, "note": "Where no end group is shown, it is not given here.", "data": [{"sequence": "VQDTAEQKVQLLRNWHQLHGKKEAYDTLIKDLKKANLC [Fas-Pep2]", "values": [{"measurement": "elution volume, free", "setting": "Ca^2+/CaM [1]; ~50–100 μM", "result": 15.2, "unit": "mL"}, {"measurement": "elution volume of complex with Ca^2+/CaM", "setting": "Ca^2+/CaM [1]; prepared at 1:1 stoichiometry", "result": 11.2, "unit": "mL"}, {"measurement": "CSPs on Ca^2+/CaM-N", "setting": "Ca^2+/CaM-N", "result": "significant CSPs for numerous residues"}, {"measurement": "CSPs of Met resonances on binding", "setting": "Ca^2+/CaM [2]", "result": "Notable CSPs are also observed in all of the ^1H-^13C resonances of Met residues"}]}]}
